# Source: patent US8450319B2, “Pyrrolopyridazinone compound” (Ube Industries, Ltd., priority 2006, dated 2013)
# pIC50: −log10 of the molar value.
# Legend:
# [1] = test system: pulmonary neutrophil infiltration; assay: Pulmonary neutrophil infiltration-inhibiting activity in SD rats (LPS inhalation, MPO activity in BALF); assay type: in vivo; conditions: @3 mg/Kg, orally 15 minutes before LPS inhalation; BAL 4 hours after LPS; MPO activity as index; inhibiting rate relative to control
# Method: Inhalation of lipopolysaccharide (hereinafter abbreviated to as LPS) was carried out by modifying the method of Moraes et al. (Br. J. Pharmacol., 123, 631 (1998)). SD rats (male, 5-weeks old, supplied by CHARLES RIVER LABORATORIES JAPAN, INC.) fasted 24 hours before administration of a compound were kept in a plastic cage, and inhalated LPS (L2880-500MG, available from SIGMA Inc.) (0.1 mg/ml) dissolved in physiological saline for 30 minutes. An ultrasonic nebulizer (NE-U12, manufactured by Omron Corporation) was used for inhalation.
# A compound to be tested is dissolved (10 ml/Kg) in mixed solution of polyethylene glycol (hereinafter abbreviated to as PEG) and water, and orally administered 15 minutes before the inhalation of LPS. For the control group, 50% PEG solution was administered.
# Bronchoalveolar lavage (hereinafter abbreviated to as BAL) was carried out as mentioned below 4 hours after the inhalation of LPS. […] 3.5 ml of physiological saline containing heparin (1 U/ml) was injected by using a disposable injection syringe (5 ml volume, manufactured by Terumo Corporation), and immediately recovered. This operation was repeated four times to obtain a bronchioalveolar lavage fluid (hereinafter abbreviated to as BALF). BALF was centrifugated (at 2500 rpm, 10 minutes, 4° C.), and 1 ml of 0.5% hexadecyltrimethylammonium bromide (030-02105, available from Wako Pure Chemical Industries, Ltd.) was added to the precipitated cells. Thereafter, a freeze-thaw operation (−80° C./37° C.) was repeated three times to destroy the cells.
# As an index of a number of neutrophil, measurement of myeloperoxidase (hereinafter abbreviated to as MPO) activity was carried out as follows. Measurement of MPO activity was carried out by partially modifying the method of Krawisz et al. (GASTROENTEROLOGY, 1344 (1984)). To cell dissolved solution was added 50 mM phosphate buffer solution (pH 6.0) containing o-dianisidine hydrochloride (0.2 mg/ml) and 0.005% hydrogen peroxide, and change in absorbance at 450 nm was measured. As a MPO standard substance, MPO from human sputum (available from Elastin Products Company Inc.) was used. Measurement of absorbance was carried out by using a Microplate Reader (MTP-32, manufactured by Corona Electric Co., Ltd.).
# An inhibiting rate of the compound to be tested relative to the control was calculated.
# cynomulgus monkey = assay: Emetic action test in cynomulgus monkey; conditions: suspended in 0.5% aqueous methyl cellulose, administered nasally; emesis observed for 24 hours; 3 or 4 monkeys per dose
# Method: The compound to be tested was suspended in 0.5% aqueous methyl cellulose solution (5 ml/Kg), and administered nasally.
# With respect to each dose, each administered to 3 or 4 monkeys, and a dose in which emesis had not been admitted in all monkeys was made a maximum non-emesis dose.
# PDE4 = assay: Measurement of PDE4 enzyme inhibiting action; assay type: biochemical, human; conditions: PDE4 enzyme solution from polymorphonuclear leukocytes of healthy volunteer; 0.2 μM [3H]cAMP, 30° C., 30 minutes; read-out: PDE4 inhibition IC50 value
# Method: Preparation of a PDE4 enzyme solution was carried out according to the method of Cooper et al. (Br. J. Pharmacol., 126, 1863 (1999)) by modifying a part thereof. Heparin-treated peripheral blood from healthy volunteer was stratified by a blood cell separating solution (Polymorphprep™, available from AXIS-SHIELD PoC AS CO.), and centrifugation was carried out at 20° C. with 1900 rpm for 27 minutes to obtain polymorphonuclear leukocytes. The polymorphonuclear leukocytes were washed with a Hanks' balanced salt solution, then, a mixed solution comprising 70% of 10 mM 3-morpholinopropane sulfonic acid buffer solution (pH 7.4) containing 1 mM EGTA, 1 mM magnesium acetate and 5 mM dithiothreitol and 30% of ethylene glycol was added thereto to dissolve the same under ice-cooling, and the obtained cell dissolved solution was used as a PDE4 enzyme solution.
# Measurement of PDE4 activity was carried out according to the method of Owens, et al. (Biochem. J., 326, 53 (1997)) by modifying a part thereof. The PDE4 enzyme solution was incubated with a compound to be tested dissolved in dimethylsulfoxide in 80 mM Tris-HCl buffer solution (pH 7.4) containing 0.2 μM [^3H] cAMP, 0.1 mM cGMP, 20 mM MgCl2 and 12 mM 2-mercaptoethanol at 30° C. for 30 minutes. Trifluoroacetic acid (final concentration: 1%) was added to the mixture to stop the reaction, and the reaction mixture was added to neutral alumina column (BOND ELUT™, available from VARIAN INC.). After the column was washed with 100 mM Tris-HCl buffer solution (pH 8.0), [^3H] 5′-AMP was eluted with 2N sodium hydroxide solution, and radioactivity of the eluent was measured by a liquid scintillation analyzer.
# A concentration of the compound to be tested which inhibits 50% of PDE4 activity was calculated from the relation between the concentration of the compound to be tested which had been added and PDE4 activity as an IC50 value.
SMILES,Rat pulmonary neutrophil infiltration-inhibiting activity [1] [%],melting point [°C],Monkey Maximum non-emesis dose (cynomulgus monkey) [mg/kg],pIC50 (PDE4)
"O=c1[nH]ncc2[nH]c(-c3ccc(OC(F)F)c(OC4CC4)c3)c(CC3CC3)c12 [Example 15, 2-(3-Cyclopropoxy-4-difluoromethoxyphenyl)-3-cyclopropylmethyl-1,5-dihydropyrrolo[2,3-d]pyridazin-4-one]",73,204 to 206,,
"O=c1[nH]ncc2[nH]c(-c3ccc(OC(F)F)c(OC4CC4)c3)c(COCCF)c12 [Example 61, 2-(3-Cyclopropoxy-4-difluoromethoxyphenyl)-3-(2-fluoroethoxymethyl)-1,5-dihydropyrrolo[2,3-d]pyridazin-4-one]",59,,,
"O=C(Nc1c(Cl)cncc1Cl)c1ccc(OC(F)F)c(OCC2CC2)c1 [compound A, N-(3,5-dichloro-4-pyridyl)-3-cyclopropylmethoxy-4-difluoromethoxybenzamide, reference compound]",,,0.1,
"COCCc1c(-c2ccc(OC(F)F)c(OC3CC3)c2)[nH]c2cn[nH]c(=O)c12 [Example 66, 2-(3-Cyclopropoxy-4-difluoromethoxyphenyl)-3-(2-methoxyethyl)-1,5-dihydropyrrolo[2,3-d]pyridazin-4-one]",69,215 to 217,>10,
"CC#CCc1c(-c2ccc(OC(F)F)c(OC3CC3)c2)[nH]c2cn[nH]c(=O)c12 [Example 72, 3-(2-Butynyl)-2-(3-cyclopropoxy-4-difluoromethoxyphenyl)-1,5-dihydropyrrolo[2,3-d]pyridazin-4-one]",76,231 to 236,>10,
"CCOCc1c(-c2ccc(OC(F)F)c(OC3CC3)c2)[nH]c2cn[nH]c(=O)c12 [Example 12, 2-(3-Cyclopropoxy-4-difluoromethoxyphenyl)-3-ethoxymethyl-1,5-dihydropyrrolo[2,3-d]pyridazin-4-one]",,141 to 143,3,8.34
"CC(C)COCc1c(-c2ccc(OC(F)F)c(OC3CC3)c2)[nH]c2cn[nH]c(=O)c12 [Example 62, 2-(3-Cyclopropoxy-4-difluoromethoxyphenyl)-3-isobutoxymethyl-1,5-dihydropyrrolo[2,3-d]pyridazin-4-one]",,162 to 164,>10,9.39
"O=c1[nH]ncc2[nH]c(-c3ccc(OC(F)F)c(OC4CC4)c3)c(Cc3ccccc3F)c12 [Example 22, 2-(3-Cyclopropoxy-4-difluoromethoxyphenyl)-3-(2-fluorobenzyl)-1,5-dihydropyrrolo[2,3-d]pyridazin-4-one]",78,202 to 204,,
"CCc1c(-c2ccc(OC(F)F)c(OC3CC3)c2)[nH]c2cn[nH]c(=O)c12 [Example 5, 2-(3-Cyclopropoxy-4-difluoromethoxyphenyl)-3-ethyl-1,5-dihydropyrrolo[2,3-d]pyridazin-4-one]",,223 to 225,>30,8.47
